Results reported in US7767455B2, “Nucleus export reporter system” (priority 2000, dated 2010).

Experiments:
[1] = test system: Rev-mediated nuclear export; assay: Inhibition of Rev-dependent GFP expression of the UTR-hivGFP-RRE reporter in transfected H1299 cells (Western blot); format: cell-based, human; conditions: 5 nM LMB in the medium 24 h before harvesting, Rev cotransfected, FIG. 5B
huGFP reporter = assay: Expression of the Rev-independent huGFP reporter in transfected H1299 cells (Western blot); format: cell-based, human; conditions: 5 nM LMB in the medium 24 h before harvesting, FIG. 5B

`CCC(=C/[C@H](C)C/C=C/C(C)=C/[C@@H](C)C(=O)[C@@H](C)[C@H](O)[C@@H](C)C/C(C)=C/C(=O)O)/C=C/[C@@H]1OC(=O)C=C[C@@H]1C` [LMB, Leptomycin B] was tested, and the “expression of the Rev-dependent GFP reporter” value [1] was “inhibit” and the “expression of the huGFP reporter” value (huGFP reporter) was “not the expression of the huGFP reporter”.
